Test results published in patent US20240109853A1 (Shanghai Yao Yuan Biotechnology Co., Ltd., priority 2020, published 2024).

The compounds below were run against ALPK1 (Homo sapiens (Human), UniProt Q96QP1) (assay: ALPK1 in vitro kinase assay (HTRF of TIFA phosphorylation)). Details: ALPK1 2 nM, TIFA substrate, ADP-Heptose activator, HTRF readout.
Assay type: biochemical

ALPK1, sequence (Q96QP1 whole entry): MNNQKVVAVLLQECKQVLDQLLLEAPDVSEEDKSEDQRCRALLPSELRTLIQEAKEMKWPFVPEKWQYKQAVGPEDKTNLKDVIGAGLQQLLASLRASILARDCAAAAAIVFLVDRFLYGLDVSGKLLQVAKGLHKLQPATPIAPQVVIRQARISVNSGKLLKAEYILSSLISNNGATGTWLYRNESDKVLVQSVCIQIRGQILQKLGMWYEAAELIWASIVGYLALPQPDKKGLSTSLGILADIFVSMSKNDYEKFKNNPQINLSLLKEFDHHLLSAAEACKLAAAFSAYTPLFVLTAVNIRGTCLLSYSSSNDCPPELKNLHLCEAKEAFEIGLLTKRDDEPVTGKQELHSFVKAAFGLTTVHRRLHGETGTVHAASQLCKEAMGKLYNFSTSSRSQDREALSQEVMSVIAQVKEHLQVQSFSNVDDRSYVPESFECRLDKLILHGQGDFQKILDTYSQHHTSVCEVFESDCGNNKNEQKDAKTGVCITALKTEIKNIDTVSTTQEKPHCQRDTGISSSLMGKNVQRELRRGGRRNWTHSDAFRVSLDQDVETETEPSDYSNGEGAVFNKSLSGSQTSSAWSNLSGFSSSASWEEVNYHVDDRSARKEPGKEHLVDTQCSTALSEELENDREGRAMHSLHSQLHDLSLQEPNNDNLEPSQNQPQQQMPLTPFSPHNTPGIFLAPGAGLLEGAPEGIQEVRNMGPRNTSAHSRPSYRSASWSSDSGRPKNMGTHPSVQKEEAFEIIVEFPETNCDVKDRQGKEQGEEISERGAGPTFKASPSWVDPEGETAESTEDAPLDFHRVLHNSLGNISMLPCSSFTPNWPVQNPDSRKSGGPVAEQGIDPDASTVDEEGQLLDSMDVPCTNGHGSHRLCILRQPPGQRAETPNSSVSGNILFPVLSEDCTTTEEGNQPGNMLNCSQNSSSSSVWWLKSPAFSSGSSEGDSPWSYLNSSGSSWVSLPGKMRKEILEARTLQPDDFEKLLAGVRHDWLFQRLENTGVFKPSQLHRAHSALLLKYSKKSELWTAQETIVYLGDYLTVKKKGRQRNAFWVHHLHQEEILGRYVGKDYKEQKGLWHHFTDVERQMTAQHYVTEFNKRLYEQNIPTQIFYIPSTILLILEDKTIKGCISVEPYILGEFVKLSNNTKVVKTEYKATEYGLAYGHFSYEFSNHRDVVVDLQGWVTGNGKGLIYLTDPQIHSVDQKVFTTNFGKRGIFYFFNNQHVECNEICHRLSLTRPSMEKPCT

Q: `C#CC(C)(c1ccc(Cl)cc1)c1csc(NC(=O)c2c(F)cc(N3CCNC(CO)C3)cc2F)n1` (centres unmarked) [Example B083, N-(4-(2-(4-chlorophenyl)but-3-yn-2-yl)thiazol-2-yl)-2,6-difluoro-4-(3-(hydroxymethyl)piperazin-1-yl)benzamide] was tested. Which IC50 did it give?
A: The IC50 was 78 nM.

Q: `C#CC(C)(c1ccc(OC)cc1)c1csc(NC(=O)c2c(F)cc(N3CCNC(CO)C3)cc2F)n1` (centres unmarked) [Example B084, 2,6-difluoro-4-(3-(hydroxymethyl)piperazin-1-yl)-N-(4-(2-(4-methoxyphenyl)but-3-yn-2-yl)thiazol-2-yl)benzamide] was tested. Which IC50 did it give?
A: Its IC50 is 28 nM.

Q: With `C#C[C@](C)(c1ccc(Cl)cc1)c1csc(NC(=O)c2c(F)cc(N3CCC(N)C3)cc2F)n1` (some centres unmarked) [Example B086] as the compound, how does the IC50 read?
A: Its IC50 is 286 nM.

Q: `C#CC(C)(c1ccc(Cl)cc1)c1csc(NC(=O)c2ccc(N3CCNCC3)cc2F)n1` (centres unmarked) [Example B094, N-(4-(2-(4-chlorophenyl)but-3-yn-2-yl)thiazol-2-yl)-2-fluoro-4-(piperazin-1-yl)benzamide] was tested. Which IC50 did it give?
A: Its IC50 is 151 nM.

Q: For `C#CC(C)(c1ccc(Cl)cc1)c1csc(NC(=O)c2c(Cl)cc(N3CCNCC3)cc2Cl)n1` (centres unmarked) [Example B096, 2,6-dichloro-N-(4-(2-(4-chlorophenyl)but-3-yn-2-yl)thiazol-2-yl)-4-(piperazin-1-yl)benzamide], which IC50 is on record?
A: The IC50 was 312 nM.

Q: How did the IC50 turn out when `C#CC(C)(c1ccc(Cl)cc1)c1csc(NC(=O)c2c(F)cc(N3CCNCC3CC)cc2F)n1` (centres unmarked) [Example B101, N-(4-(2-(4-chlorophenyl)but-3-yn-2-yl)thiazol-2-yl)-4-(2-ethylpiperazin-1-yl)-2,6-difluorobenzamide] was run?
A: The IC50 was 70 nM.

Q: How did the IC50 turn out when `C#CC(C)(c1ccc(F)cc1)c1csc(NC(=O)c2c(F)cc(-c3cnn(C)c3N)cc2F)n1` (centres unmarked) [Example B102, 4-(5-amino-1-methyl-1H-pyrazol-4-yl)-2,6-difluoro-N-(4-(2-(4-fluorophenyl)but-3-yn-2-yl)thiazol-2-yl)benzamide] was run?
A: Its IC50 is 1270 nM.

Q: Which IC50 does the source give for `C#CC(C)(c1ccc(F)cc1)c1csc(NC(=O)c2c(F)cc(-c3c[nH]n(C)c3=O)cc2F)n1` (centres unmarked) [Example B103, 2,6-difluoro-N-(4-(2-(4-fluorophenyl)but-3-yn-2-yl)thiazol-2-yl)-4-(2-methyl-3-oxo-2,3-dihydro-1H-pyrazol-4-yl)benzamide] here?
A: Its IC50 is 5140 nM.

Q: Which IC50 does the source give for `C#CC(C)(c1ccc(F)cc1)c1csc(NC(=O)c2c(F)cc(-c3cnc(CN)cn3)cc2F)n1` (centres unmarked) [Example B104, 4-(5-(aminomethyl)pyrazin-2-yl)-2,6-difluoro-N-(4-(2-(4-fluorophenyl)but-3-yn-2-yl)thiazol-2-yl)benzamide] here?
A: The IC50 was 1470 nM.

Q: How did the IC50 turn out when `CC(c1ccc(Cl)cc1)c1csc(NC(=O)c2c(F)cc(N3CCNCC3)cc2F)n1` (centres unmarked) [Example C003, N-(4-(1-(4-chlorophenyl)ethyl)thiazol-2-yl)-2,6-difluoro-4-(piperazin-1-yl)benzamide] was run?
A: The IC50 was 11 nM.

Q: For `COCC(C)(c1ccccc1)c1csc(NC(=O)c2c(F)cc(N3CCNCC3)cc2F)n1` (centres unmarked) [Example C004, 2,6-difluoro-N-(4-(1-methoxy-2-phenylpropan-2-yl)thiazol-2-yl)-4-(piperazin-1-yl)benzamide], which IC50 is on record?
A: The IC50 was 22 nM.

Q: With `CC(C)(c1ccc(F)cc1)c1csc(NC(=O)c2c(F)cc(N3CCNCC3)cc2F)n1` [Example C005, 2,6-difluoro-N-(4-(2-(4-fluorophenyl)propan-2-yl)thiazol-2-yl)-4-(piperazin-1-yl)benzamide] as the compound, how does the IC50 read?
A: The IC50 was 6 nM.

Q: With `O=C(Nc1nc(C2(c3ccc(Br)cc3)CCCC2)cs1)c1c(F)cc(N2CCNCC2)cc1F` [Example C006, N-(4-(1-(4-bromophenyl)cyclopentyl)thiazol-2-yl)-2,6-difluoro-4-(piperazin-1-yl)benzamide] as the compound, how does the IC50 read?
A: Its IC50 is 43 nM.

Q: Which IC50 does the source give for `C#CC(C)(c1ccc(Cl)cc1)c1csc(NC(=O)c2c(F)cc(N3CCN(C)CC3)cc2F)n1` (centres unmarked) [Example C009, N-(4-(2-(4-chlorophenyl)but-3-yn-2-yl)thiazol-2-yl)-2,6-difluoro-4-(4-methylpiperazin-1-yl)benzamide] here?
A: The IC50 was 7 nM.

Q: With `C#C[C@](C)(c1ccc(Cl)cc1)c1csc(NC(=O)c2c(F)cc(N3CCN(C)CC3)cc2F)n1` [Example C010, (R)-N-(4-(2-(4-chlorophenyl)but-3-yn-2-yl)thiazol-2-yl)-2,6-difluoro-4-(4-methylpiperazin-1-yl)benzamide] as the compound, how does the IC50 read?
A: Its IC50 is 56 nM.

Q: Which IC50 does the source give for `CCOCC(C)(c1ccccc1)c1csc(NC(=O)c2c(F)cc(N3CCNCC3)cc2F)n1` (centres unmarked) [Example C012, N-(4-(1-ethoxy-2-phenylpropan-2-yl)thiazol-2-yl)-2,6-difluoro-4-(piperazin-1-yl)benzamide] here?
A: Its IC50 is 78 nM.

Q: `COCC(C)(c1ccc(Br)cc1)c1csc(NC(=O)c2c(F)cc(N3CCNCC3)cc2F)n1` (centres unmarked) [Example C014, N-(4-(2-(4-bromophenyl)-1-methoxypropan-2-yl)thiazol-2-yl)-2,6-difluoro-4-(piperazin-1-yl)benzamide] was tested. Which IC50 did it give?
A: Its IC50 is 13 nM.

Q: With `CN1CCN(c2cc(F)c(C(=O)Nc3nc(C4(c5ccc(Br)cc5)CCCC4)cs3)c(F)c2)CC1` [Example C015, N-(4-(1-(4-bromophenyl)cyclopentyl)thiazol-2-yl)-2,6-difluoro-4-(4-methylpiperazin-1-yl)benzamide] as the compound, how does the IC50 read?
A: The IC50 was 266 nM.

Q: Which IC50 does the source give for `COC[C@](C)(c1ccccc1)c1csc(NC(=O)c2c(F)cc(N3CCNCC3)cc2F)n1` [Example C017, (R)-2,6-difluoro-N-(4-(1-methoxy-2-phenylpropan-2-yl)thiazol-2-yl)-4-(piperazin-1-yl)benzamide] here?
A: The IC50 was 67 nM.

Q: With `C#C[C@@](C)(c1ccc(Cl)cc1)c1nc(NC(=O)c2c(F)cc(N3CCNCC3)cc2F)sc1Cl` [Example C020, (S)-N-(5-chloro-4-(2-(4-chlorophenyl)but-3-yn-2-yl)thiazol-2-yl)-2,6-difluoro-4-(piperazin-1-yl)benzamide] as the compound, how does the IC50 read?
A: The IC50 was 88 nM.

Q: With `COCC(C)(c1ccc(OC)cc1)c1csc(NC(=O)c2c(F)cc(N3CCNCC3)cc2F)n1` (centres unmarked) [Example C021, 2,6-difluoro-N-(4-(1-methoxy-2-(4-methoxyphenyl)propan-2-yl)thiazol-2-yl)-4-(piperazin-1-yl)benzamide] as the compound, how does the IC50 read?
A: The IC50 was 44 nM.

Q: For `C#C[C@](C)(c1ccc(Cl)cc1)c1csc(NC(=O)c2c(F)cc(N3CCN(CCO)CC3)cc2F)n1` [Example C022, (R)-N-(4-(2-(4-chlorophenyl)but-3-yn-2-yl)thiazol-2-yl)-2,6-difluoro-4-(4-(2-hydroxyethyl)piperazin-1-yl)benzamide], which IC50 is on record?
A: Its IC50 is 188 nM.

Q: `C#C[C@@](C)(c1ccc(Cl)cc1)c1csc(NC(=O)c2c(F)cc(N3CCN(CCO)CC3)cc2F)n1` [Example C023, (S)-N-(4-(2-(4-chlorophenyl)but-3-yn-2-yl)thiazol-2-yl)-2,6-difluoro-4-(4-(2-hydroxyethyl)piperazin-1-yl)benzamide] was tested. Which IC50 did it give?
A: Its IC50 is 60 nM.

Q: Which IC50 does the source give for `COC[C@](C)(c1ccc(Cl)cc1)c1csc(NC(=O)c2c(F)cc(N3CCNCC3)cc2F)n1` [Example C024, (R)-N-(4-(2-(4-chlorophenyl)-1-methoxypropan-2-yl)thiazol-2-yl)-2,6-difluoro-4-(piperazin-1-yl)benzamide] here?
A: Its IC50 is 130 nM.

Q: How did the IC50 turn out when `COC[C@@](C)(c1ccc(Cl)cc1)c1csc(NC(=O)c2c(F)cc(N3CCNCC3)cc2F)n1` [Example C025, (S)-N-(4-(2-(4-chlorophenyl)-1-methoxypropan-2-yl)thiazol-2-yl)-2,6-difluoro-4-(piperazin-1-yl)benzamide] was run?
A: The IC50 was 8 nM.

Q: `O=C(Nc1nc(C2(c3ccc(Br)cc3)CCCC2)cs1)c1c(F)cc(N2CCNCC2)cc1F` [Example C026, N-(4-(1-(4-bromophenyl)cyclopentyl)thiazol-2-yl)-2,6-difluoro-4-(piperazin-1-yl)benzamide] was tested. Which IC50 did it give?
A: The IC50 was 437 nM.
